SMILES | melting point
CCOP(=O)(OCC)N1C(=O)[C@@H](NC(=O)OC(C)(C)C)[C@@H]1C | 101 to 104 °C
COC(=O)c1ccc2oc3c(c(=O)c2c1)CCC3=Cc1ccc(N)cc1 | 265 to 268 °C
CCOC(=O)Oc1c(OC)cc(Cl)c2c1CN1CCc3cc(OC)c(OCc4ccccc4)cc3C1C2 (stereo unspecified) | 128 °C
O=C1Cc2cnccc2N1 | > 250 °C
CCCCCC1C=CC(c2ccc(OC)cc2)=CC1 (stereo unspecified) | 55 °C
Cc1nc2c(OCc3ccccc3)cccn2c(=O)c1CCCl | 141 °C
O=C(CCl)C1=NOC(c2c(F)cccc2F)C1 (stereo unspecified) | 82.1 to 83.4 °C
CC(=O)Nc1c(C(=O)c2nccn2C)[nH]c2cc(Cl)ccc12 | 205 to 207 °C
COC(=O)C=Cc1cc(OC)ccc1-c1ccccc1 | 175 to 177 °C
Nc1nc(N)c(C(=O)N=CNN2CCSCC2)nc1Cl | 234 to 236 °C
[N-]=[N+]=NS(=O)(=O)c1cccc(C(=O)O)c1 | 122 to 127 °C
Cc1cc2nc(C(C)C)c(CO)c(-c3ccc(F)cc3)n2n1 | 188 °C
COC(=O)c1ccc2cc(CCCc3cc4ccc(C(=O)OC)cc4o3)oc2c1 | 100 to 101 °C
Cc1c(C)c2c(c(C)c1N)CC(C)(CN1CCc3c([nH]c4ccccc34)C1)O2 (stereo unspecified) | 150 to 153 °C
COc1nc(=O)n(-c2ccc(Cl)cc2C)c(=O)[nH]1 | 193 to 195 °C
Cn1ncc(C(=O)c2ccc(S(C)(=O)=O)c(C3=NC(C)(C)CO3)c2Cl)c1O | 132 to 135 °C
O=c1[nH]c2sc3ccc(C(F)(F)F)cc3c2[nH]c1=O | > 320 °C
CC(C)CCCCNC(=O)n1sc2ccccc2c1=O | 49 to 51 °C
O=C(O)CCCCO/N=C(/c1cccnc1)c1cccc(C(F)(F)F)c1 | 70.3 °C
O=C(O)CCC1Cc2ccccc2C1 | 99 to 100 °C
CCN(CC)C(=O)Cc1ccc(O)c(C(C)(C)C)c1 | 124 to 126 °C
COC(=O)c1cc(I)cc(Cl)c1OC | 41 to 43 °C
CN(C)c1ccc2cc(-c3ccnc(Cl)c3C#N)ccc2c1 | 198 to 200 °C
Cc1ncccc1Oc1ccc(C(=N)Nc2cc(Cl)cc(NC(=O)C=Cc3ccccc3Cl)c2)cc1 | 105 to 107 °C
COc1ccc(N2CCN(c3c(C)c(C)c4c(c3C)C(O)(c3ccc(Cl)cc3)C(C)(C)O4)CC2)cc1 (stereo unspecified) | 153 to 155 °C
O=C1Nc2ccc(Cl)cc2C(c2ccc3[nH]c(=O)n(CCCO)c3c2)=N[C@H]1Cc1ccccc1Cl | 210 °C

SMILES | melting point
CCCCCCCCCCCC1=NC(=Cc2[nH]c(-c3ccc[nH]3)cc2OCC)C=C1 | 94 to 96 °C
CC(=O)N(C)c1cc(C(=O)C=CN(C)C)ccc1F | 131 to 132 °C
CCOP(=O)(OCC)C(O)c1ccc(NC(=O)CCc2oc(-n3cnc4ccccc43)nc2-c2ccc(Cl)cc2)cc1 (stereo unspecified) | 171 to 172 °C
CCOCCOc1ccc(-c2ccc3c(c2)C=C(C(=O)OC)CCN3C=O)cc1 | 138 to 142 °C
N#CCCn1nc(-c2ccccc2)c(-c2ccccc2)c(C#N)c1=O | 160 to 161 °C
NNC1=NCc2c[nH]c3cccc1c23 | 188 to 189 °C
COc1cccc(Oc2ncccc2C=O)c1 | 76 to 78 °C
COC(=O)CC(CC(=O)OC)Sc1cc(OC)cc(OC)c1 | 98 to 99 °C
CSC1=Nc2ccc(Cl)cc2Nc2cscc21 | 152 to 154 °C
CC1(C)CCC(C)(C)c2cc(C(=O)OCc3ccc(C(=O)OCc4ccccc4)cc3)ccc21 | 78 to 79 °C
Brc1ccc2c(c1)sc1cc(Br)ccc12 | 171 to 173 °C
C[C@@H]1S[C@@H](C(=O)Nc2ccc(CN3C(=O)COC3=O)cc2)Cc2cc3c(cc2C1=O)OCO3 | 240 to 242 °C
CCOC(=O)CN1[C@H](C)CN(c2ccc(N)cc2C#N)C[C@@H]1C | 45 °C
CNC(C)C/C=C/c1cnc(N)c(C)c1 (stereo unspecified) | 78 to 81 °C
COc1ccc(-c2cnn3c(-c4cccc(NC(=O)CC(C)C)c4)ccnc23)cc1C=O | 187 to 189 °C
COc1cc(-c2[nH]c(SC)nc2-c2ccc(F)cc2)ccn1 | 158 °C
COc1cccc(CC(=O)O)c1OCCCc1cn(-c2ncc(C#N)cn2)nc1C(C)C | 167 to 168 °C
O=C(O)Cc1cc(O)c2c(c1)CCc1ccccc1C2=O | 149 to 151 °C
CCOC(=O)c1c(C)cc(NC=O)c(C(=O)O)c1C | 146 to 148 °C
Cc1nn(C)cc1S(N)(=O)=O | 97 to 105 °C
CCn1ncnc1COc1nn2c(-c3ccc(F)cc3)nncc2c1-c1ccccc1F | 179 °C
Cc1c(NC(=O)C(C)(C)C)cccc1C(F)(F)F | 122 °C
OCCOc1cnccc1CCCOc1cccnc1Oc1ccccc1 | 129 to 132 °C
COc1ccc(CNCCCOc2ccc(S(=O)(=O)c3c(C(C)C)cn4ccccc34)cc2)cc1OC | 109 to 111 °C
CC(=O)c1c(Cl)nc2n(c1=O)CCS2 | 135 to 136 °C
CCOC(=O)c1cn(NCCC=O)c2nc(C)ccc2c1=O | 175 to 178 °C

SMILES | melting point
CC(C)(C)OC(=O)C(=[N+]=[N-])C(=O)COCc1ccccc1 | 68 °C
OC(=S)CCCCCCn1c(-c2ccccc2)nc(-c2ccccc2)c1-c1ccccc1 | 166 to 169 °C
COC(=O)c1ccc(C2=NC(C)(C)Cc3cc(OC)c4c(c32)CC(C)(C)O4)cc1N | 161 to 162 °C
C[C@@H](NC(=O)c1cncc(-c2ccc(Cl)cc2)c1)[C@](O)(Cn1cncn1)c1ccc(F)cc1F | 93 to 101 °C
CCC(Br)C(=O)c1ccc(OC)c(OCC(F)(F)F)c1 (stereo unspecified) | 120 to 121 °C
COc1cc(CNC(=O)c2cc3c(=O)n(Cc4ccc([N+](=O)[O-])nc4)c(=O)n(C)c3s2)ccn1 | 200 to 207 °C
Oc1ccc(N=Nc2cccc(Cl)c2Cl)c(Cl)c1Cl | 197 to 199 °C
CCOc1c(Cl)cc([N+](=O)[O-])c(OCC)c1[N+](=O)[O-] | 78 °C
Cc1nc2c(Cl)cccc2c(=O)n1C1CCC(=O)NC1=O (stereo unspecified) | 290 to 292 °C
Nc1ccc([N+](=O)[O-])cc1OCCCCOc1cc([N+](=O)[O-])ccc1N | 226 to 228 °C
CC1C(=O)C(c2ccc(S(C)(=O)=O)cc2)=C1c1ccccc1 (stereo unspecified) | 121 to 122 °C
O=C1NC(=O)c2c1c(-c1ccccc1Cl)cc1c2c(Br)cn1CCCO | 121 to 123 °C
C=CC(C)(C)CC(NC(=O)c1ccc(Cl)cc1)NC(=NC#N)Nc1cccnc1 (stereo unspecified) | 171 to 172 °C
Nc1ccc(Cn2cc(C(F)(F)F)ccc2=O)cc1 | 97 to 98 °C
CCOC(=O)/C=C(/c1ccc(OC)cc1)c1cc(Cl)cc(Cl)c1 | 116 to 118 °C
NS(=O)(=O)c1cccc2c1S(=O)(=O)CC2 | 215 to 217 °C
Cc1oc(-c2ccc3ccccc3c2)nc1COc1ccc(COc2ncccc2CO)cc1 | 161 to 162 °C
CC(=O)Nc1cnn2c1-c1ccccc1N(NC(C)=O)C2(C)C | 229 to 230 °C
CN1C(=O)C(NC(=O)Nc2cccc(C#N)c2)C(=O)N(c2ccccc2)c2ccccc21 (stereo unspecified) | > 250 °C
Cc1ccc(Cl)cc1N1CN(C(C)C)CN(C)C1=S | 83 to 85 °C
OC1CSC(Oc2cccc(-c3cnccn3)c2)C(O)C1O (stereo unspecified) | 206 to 209 °C
O=C(Nc1n[nH]c(=S)s1)N[C@@H](Cc1ccccc1)C(=O)O | 130 °C
CCCCc1nn(-c2ccc([N+](=O)[O-])cc2C(F)(F)F)c(=O)n1Cc1ccc(-c2ccccc2S(N)(=O)=O)cc1 | 218 to 220 °C
CC1C(=O)N(c2ccc(Sc3ccccc3)cc2)C(=S)N1c1ccccc1 (stereo unspecified) | 136 to 138 °C
Cc1nc(Cl)c(C(=O)O)cc1Cl | 123 to 138 °C
CCCCCCCCCCc1ccnc(C(=O)NCC(=O)OCC)c1 | 29 to 30 °C

SMILES | melting point
COC(=O)c1ccc2c(c1)SCCCC2=O | 63 to 64 °C
CCCCCCOC1CC(C)(C)N(c2nc(Cl)nc(Cl)n2)C(C)(C)C1 | 49 to 51 °C
CC(=O)OC1CSC(Oc2ccc3nnn(C)c3c2)C(OC(C)=O)C1OC(C)=O (stereo unspecified) | 143 °C
CCOC(=O)c1ccc(-c2cccc(-c3ccc4c(c3)C(C)(C)CCC4(C)C)c2O)cc1 | 121 °C
O=C(NC(Cc1ccccc1)C(=O)O)OCc1ccc(CCOc2ccccc2)cc1 (stereo unspecified) | 150 to 152 °C
O=C(O)CCCCCCCCCCCNC(=O)CCCCCCCCC/C=C/c1ccccc1 | 119 to 121 °C
COc1cc2c(cc1Nc1ncc(Cl)c(Nc3ccc(N(C)C)cc3S(=O)(=O)C(C)C)n1)CCN(CC(=O)N(C)C)CC2 | 81 to 93 °C
N#Cc1cnc2cc(F)c(OCc3ccccc3)cc2c1Cl | 159 to 160 °C
CCOC(=O)C(=NO)C(C)C | 54 to 55 °C
CCOC(=O)N1CCC(Nc2nc3ccccc3n2Cc2ccc(F)cc2)CC1 | 181 °C
Nc1nc(N)nc(CNc2c(Br)cc(Br)cc2Br)n1 | 250 to 251 °C
CCCc1nn(C)c(C(N)=O)c1NC(=O)c1cc(S(=O)(=O)N2CCN(C)CC2)ccc1OCC | 204 to 206 °C
COc1ccc(COC(=O)C2=C3[C@H]4CCCC[C@H]4[C@@H]3S[C@@H]3[C@H](NC(=O)Cc4ccccc4)C(=O)N23)cc1 | 234 to 236 °C
CC(C)(CO)C1CCN(CC#Cc2cc(C(F)(F)F)cc(C(F)(F)F)c2)CC1 | 85 to 87 °C
O=C(CCC(=O)N1CCC(c2ccc(F)cc2)CC1)c1ccc2c(c1)CCNCC2 | 127 to 128 °C
CCCCCCCCCCCCCCCCCCOc1cc(C(N)=O)cc(N(CC(=O)OCc2ccccc2)CC(=O)OCc2ccccc2)c1 | 112 to 114 °C
CO/N=C(/C(C)=O)C(=O)OC(C)(C)C | 80 to 85 °C
CCOC(=O)Nc1ccc(NC(=O)OCc2ccccc2)c(O)c1 | 190 °C
CC(=O)c1ccc(-c2ccc(Br)cc2)c(F)c1 | 89 to 91 °C
CN1CCN(C2CC3C4CCC5CC(O)C(N6CCC(=O)CC6)CC5(C)C4CCC3(C)C2O)CC1 (stereo unspecified) | 225 to 229 °C
CC(C)Cn1c(=O)n(C)c(=O)c2c(SCCCN=[N+]=[N-])c(Cc3cccc4ccccc34)sc21 | 94 to 96 °C
Cc1nc2cccnc2n(-c2ccc(Cl)cc2)c1=O | 245 to 246 °C
CC(=O)Oc1ccc(NC(=O)OC(C)(C)C)cc1C(=O)O | 76 to 78 °C

Reference: a melting point compilation (Tetko et al.; mined from patent text by program, amines drawn as free bases though some values may be those of a salt)
